Data set [1] addresses T1, alcohol oxidase from Pichia pastoris (Komagataella phaffii, UniProt P04842).
T1 construct: preparation and isolation of pure crystalline alcohol oxidase from Pichia pastoris; endogenous in cells; homogenate supernatant dialysed to give crystalline enzyme
T1 sequence (P04842 1-663): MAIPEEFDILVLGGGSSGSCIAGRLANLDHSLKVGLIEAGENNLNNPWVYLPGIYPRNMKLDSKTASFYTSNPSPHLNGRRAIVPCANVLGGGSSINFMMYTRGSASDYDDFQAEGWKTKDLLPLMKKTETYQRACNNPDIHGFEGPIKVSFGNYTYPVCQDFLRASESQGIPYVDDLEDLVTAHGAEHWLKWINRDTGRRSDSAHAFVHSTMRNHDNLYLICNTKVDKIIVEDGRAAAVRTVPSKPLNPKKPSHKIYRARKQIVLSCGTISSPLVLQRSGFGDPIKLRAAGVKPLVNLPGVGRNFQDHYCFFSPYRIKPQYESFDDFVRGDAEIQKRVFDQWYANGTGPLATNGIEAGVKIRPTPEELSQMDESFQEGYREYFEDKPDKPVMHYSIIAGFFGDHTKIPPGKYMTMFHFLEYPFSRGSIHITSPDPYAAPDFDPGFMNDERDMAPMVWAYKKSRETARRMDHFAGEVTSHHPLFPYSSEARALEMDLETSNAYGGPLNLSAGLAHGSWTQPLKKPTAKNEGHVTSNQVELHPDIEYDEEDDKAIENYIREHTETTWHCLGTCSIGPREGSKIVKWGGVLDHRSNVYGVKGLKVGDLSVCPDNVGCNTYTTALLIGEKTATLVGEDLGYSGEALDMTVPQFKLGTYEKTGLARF
Put plainly: Characteristics of the Pichia enzyme (Km, inhibitors, substrate reactivity). It counts as biochemical.

Substrate in data set [2]: CO
Put plainly: purified protein, by the assay type. The settings on record: other: apparent Michaelis constant; pH 6.5.

Broadly, the Km is the concentration of substrate that gives half-maximal velocity. As for `CO` [Methanol], the Km in data set [1] (read-out: Km for methanol, apparent Michaelis constant) amounted to 4 mM.
Regarding `CC=O` [acetaldehyde], in data set [1], the “reactivity of the alcohol oxidase toward substrate” value is “not reactive”.

B1: alcohol oxidase from Pichia pastoris (Komagataella phaffii GS115) (protein)
chain: MAIPEEFDILVLGGGSSGSCIAGRLANLDHSLKVGLIEAGENNLNNPWVYLPGIYPRNMKLDSKTASFYTSNPSPHLNGRRAIVPCANVLGGGSSINFMMYTRGSASDYDDFQAEGWKTKDLLPLMKKTETYQRACNNPDIHGFEGPIKVSFGNYTYPVCQDFLRASESQGIPYVDDLEDLVTAHGAEHWLKWINRDTGRRSDSAHAFVHSTMRNHDNLYLICNTKVDKIIVEDGRAAAVRTVPSKPLNPKKPSHKIYRARKQIVLSCGTISSPLVLQRSGFGDPIKLRAAGVKPLVNLPGVGRNFQDHYCFFSPYRIKPQYESFDDFVRGDAEIQKRVFDQWYANGTGPLATNGIEAGVKIRPTPEELSQMDESFQEGYREYFEDKPDKPVMHYSIIAGFFGDHTKIPPGKYMTMFHFLEYPFSRGSIHITSPDPYAAPDFDPGFMNDERDMAPMVWAYKKSRETARRMDHFAGEVTSHHPLFPYSSEARALEMDLETSNAYGGPLNLSAGLAHGSWTQPLKKPTAKNEGHVTSNQVELHPDIEYDEEDDKAIENYIREHTETTWHCLGTCSIGPREGSKIVKWGGVLDHRSNVYGVKGLKVGDLSVCPDNVGCNTYTTALLIGEKTATLVGEDLGYSGEALDMTVPQFKLGTYEKTGLARF
Turning to B1, the Km in data set [2] was 4 mM.
